Patent publication US4377587A, “Arylamine derivatives and use thereof as microbicides” (Ciba-Geigy Corporation, priority 1980, dated 1983)
In brackets after ≈: the same amount, converted by molar mass.

Tests used:
Pythium debaryanum [1] = assay: Action on Pythium debaryanum on sugar beets, (a) after soil application; assay type: in vivo; conditions: sugar beet, 20 ppm of active ingredient based on volume of soil, 2-3 weeks at 20°-24° C.
Text: (§1) Action on Pythium debaryanum on sugar beets
(a) Action after soil application
The fungus is cultivated on carrot chips nutrient solution and added to a mixture of earth and sand. Flower pots are filled with the infected soil, in which sugar beet seeds are then sown. Immediately after sowing, the test preparations formulated as wettable powders are poured in the form of aqueous suspensions over the soil (20 ppm of active ingredient, based on the volume of the soil). The pots are then stood for 2-3 weeks in a greenhouse at 20°-24° C. The soil is kept uniformly moist by gently spraying it with water. The emergence of the sugar beet plants as well as the number of healthy and sick plants are ascertained in evaluating the test.

Phytophthora infestans [2] = assay type: in vivo, Phytophthora infestans (on tomato plants); conditions: tomato, spray 0.06% active ingredient, infested after 24 hours, evaluated after 5 days at 20° C.
Podosphaera leucotricha = assay: Residual-protective action against Podosphaera leucotricha on apples; assay type: in vivo; conditions: apple seedlings, spray 0.06% of active ingredient, evaluated 12 days after infection
Protocol: Residual-protective action against Podosphaera leucotricha on apples
Apple seedlings in the 5-leaf stage are sprayed with a spray mixture (0.06% of active ingredient) prepared from a wettable powder formulation of the active ingredient. After 24 hours the treated plants are infected with a conidia suspension of the fungus and placed in a climatic chamber at 70% relative humidity and 20° C. Evaluation of fungus infestation is made 12 days after infection.

Pythium debaryanum [3] = assay: Action on Pythium debaryanum on sugar beets, (b) after seed dressing application; assay type: in vivo; conditions: sugar beet, seed dressing 0.06%, 2-3 weeks at c. 20° C.
Protocol: as §1
(b) Action after seed dressing application
The fungus is cultivated on carrot chip nutrient solution and added to a mixture of earth and sand. Flower pots are filled with the infected soil and sugar beet seeds which have been treated with the test preparations formulated as seed dressing powders are sown therein (0.06% of one of the compounds of Tables 1 and 2). The pots are then stood in a greenhouse for 2-3 weeks at c. 20° C. The soil is kept uniformly moist by gently spraying it with water. The emergence of the sugar beet plants is ascertained in evaluating the test.

Erysiphe graminis = assay: Action against Erysiphe graminis on barley, residual protective action; assay type: in vivo, Erysiphe graminis (on barley plants); conditions: 0.02% active ingredient sprayed, infected after 3-4 hours, evaluated after 10 days
Protocol: Action against Erysiphe graminis on barley
Residual protective action
Barley plants about 8 cm in height are sprayed with a spray mixture (0.02% of active ingredient) prepared from the active ingredient formulated as a wettable powder. The treated plants are dusted with conidia of the fungus after 3-4 hours. The infected barley plants are then stood in a greenhouse at about 22° C. The extent of the fungus infection is evaluated after 10 days.

Phytophthora infestans [4] = assay type: in vivo, Phytophthora infestans (on tomato plants); conditions: tomato, sprayed 0.06% active ingredient 22 hours after infestation, evaluated 5 days after infestation
Water solubility = assay type: physicochemical; conditions: 25° C.
Text: Determination of physico-chemical data
(a) Reduced water solubility

| Structure (SMILES) | emergent plants (fully effective against Pythium pathogens), soil application (Pythium debaryanum [1]) | fungus attack compared with untreated control plants (100% attack), residual-protective (Phytophthora infestans [2]) | emergent plants (fully effective against Pythium pathogens), seed dressing application (Pythium debaryanum [3]) | fungus attack compared with untreated and infected control plants (100% attack), residual curative (Phytophthora infestans [4]) | further results |
| --- | --- | --- | --- | --- | --- |
| CCOCC(=O)N(c1c(C)ccc([N+](=O)[O-])c1C)C(C)C(=O)OC(C)C (centres unmarked) [Compound 73] | over 90% | less than 10% | over 90% |  | fungus attack compared with untreated and infected control seedlings (100% attack) (Podosphaera leucotricha): less than 10% |
| COC(=O)C(C)N(C(=O)CS(C)(=O)=O)c1c(C)ccc(N)c1C (centres unmarked) [Compound 14] |  | less than 10% |  |  |  |
| CCOCC(=O)N(c1cccc([N+](=O)[O-])c1C)C(C)C(=O)OC (centres unmarked) [Compound 104] |  |  |  |  | fungus attack compared with control plants (100% attack) (Erysiphe graminis): less than 10% |
| COCC(=O)N(c1c(C)cc([N+](=O)[O-])c(C)c1C)C(C)C(=O)OC (centres unmarked) [Compound 78] |  | less than 10% |  |  |  |
| CCOCC(=O)N(c1c(Cl)ccc(N)c1C)C(C)C(=O)OC (centres unmarked) [Compound 88] |  | less than 10% |  |  |  |
| COCC(=O)N(c1c(N)cccc1Cl)C(C)C(=O)OC (centres unmarked) [Compound 6] | over 90% | less than 10% | over 90% | less than 10% | fungus attack compared with untreated and infected control seedlings (100% attack) (Podosphaera leucotricha): less than 10% |
| COC(=O)C(C)N(C(=O)C1CCCO1)c1c(C)cc([N+](=O)[O-])c2ccccc12 (centres unmarked) [Compound 607] | over 90% | less than 10% | over 90% |  |  |
| COCC(=O)N(c1c([N+](=O)[O-])ccc2ccccc12)C(C)C(=O)OC (centres unmarked) [Compound 400, N-(1'methoxycarbonylethyl)-N-methoxyacetyl-2-nitronaphthylamine] | over 90% | less than 10% | over 90% | less than 10% |  |
| COCC(=O)N(c1c(C)cc([N+](=O)[O-])c2ccccc12)C(C)C(=O)OC (centres unmarked) [Compound 606] | over 90% | less than 10% | over 90% | less than 10% | fungus attack compared with untreated and infected control seedlings (100% attack) (Podosphaera leucotricha): less than 10% |
| COC(=O)C(C)N(C(=O)C1CCCO1)c1c(C)c(C)c([N+](=O)[O-])c(C)c1C (centres unmarked) [Compound 144] |  | less than 10% |  |  |  |
| CCOC(=O)C(C)N(C(=O)COC)c1c(C)ccc([N+](=O)[O-])c1C (centres unmarked) [Compound 74] |  | less than 10% |  | less than 10% |  |
| COC(=O)C(C)N(C(=O)C1CC1)c1ccc([N+](=O)[O-])cc1Cl (centres unmarked) [Compound 138] |  | less than 10% |  |  |  |
| COC(=O)C(C)N(C(=O)CS(C)(=O)=O)c1c(C)ccc([N+](=O)[O-])c1C (centres unmarked) [Compound 38] |  | less than 10% |  |  | fungus attack compared with control plants (100% attack) (Erysiphe graminis): less than 10% |
| C#CCN(C(=O)COCC)c1c(C)ccc([N+](=O)[O-])c1C [Compound 122] |  | less than 10% |  |  |  |
| COCC(=O)N(c1c(Cl)cccc1[N+](=O)[O-])C(C)C(=O)OC (centres unmarked) [Compound 57] |  | less than 10% |  |  |  |
| COCC(=O)N(c1c(C)c(C)c([N+](=O)[O-])c(C)c1C)C(C)C(=O)OC (centres unmarked) [Compound 141] |  | less than 10% |  | less than 10% |  |
| COCC(=O)N(c1ccc([N+](=O)[O-])c2ccccc12)C(C)C(=O)OC (centres unmarked) [Compound 611] |  | less than 10% |  | less than 10% |  |
| C#CCN(C(=O)COC)c1c(C)ccc([N+](=O)[O-])c1C [Compound 117] |  | less than 10% |  |  |  |
| COCC(=O)N(c1c(C)cc(C)c([N+](=O)[O-])c1C)C(C)C(=O)OC (centres unmarked) [Compound 29] | over 90% | less than 10% | over 90% | less than 10% |  |
| COC(=O)C(C)N(C(=O)C1CCCO1)c1c(C)ccc([N+](=O)[O-])c1C (centres unmarked) [Compound 35] |  | less than 10% |  |  |  |
| CCOCC(=O)N(c1c(Cl)ccc([N+](=O)[O-])c1C)C(C)C(=O)OC (centres unmarked) [Compound 107] | over 90% |  | over 90% | less than 10% | fungus attack compared with control plants (100% attack) (Erysiphe graminis): less than 10% |
| COCC(=O)N(c1c(C)c(C)c(N)c(C)c1C)C(C)C(=O)OC (centres unmarked) [Compound 158] | over 90% | less than 10% | over 90% |  |  |
| COCC(=O)N(c1c([N+](=O)[O-])ccc(C)c1C)C(C)C(=O)OC (centres unmarked) [Compound 59, N-(1'methoxycarbonylethyl)-N-methoxyacetyl-2,3-dimethyl-6-nitroaniline] | over 90% | less than 10% | over 90% | less than 10% |  |
| CCOCC(=O)N(c1c(C)c(C)c(N)c(C)c1C)C(C)C(=O)OC (centres unmarked) [Compound 159] |  | less than 10% |  |  |  |
| COCC(=O)N(c1c(C)cccc1C)[C@@H](C)C(=O)OC [Metalaxyl, N-(2,6-dimethylphenyl)-N-(2'-methoxyacetyl)alanine methyl ester, reference compound] |  |  |  |  | solubility (Water solubility): 800 µg/mL (≈ 2860 µM) |
| COC(=O)C(C)N(C(=O)C1CC1)c1ccc(N)cc1Cl (centres unmarked) [Compound 139] |  | less than 10% |  |  |  |
| COC(=O)C(C)N(C(=O)C1CCCO1)c1c(C)c(C)c(N)c(C)c1C (centres unmarked) [Compound 161] |  | less than 10% |  | less than 10% |  |
| C=CCN(C(=O)COC)c1c(C)ccc([N+](=O)[O-])c1C [Compound 111] |  | less than 10% |  |  |  |
| CCOCC(=O)N(c1c(C)c(C)c([N+](=O)[O-])c(C)c1C)C(C)C(=O)OC (centres unmarked) [Compound 142] |  | less than 10% |  | less than 10% | fungus attack compared with control plants (100% attack) (Erysiphe graminis): less than 10% |
| COC(=O)C(C)N(C(=O)COC(C)C)c1c(C)c(C)c(N)c(C)c1C (centres unmarked) [Compound 160] | over 90% |  | over 90% |  |  |
